Laboratory results as given in BindingDB's records for PubMed 37738648 (Astrazeneca, 2023).

Tests used:
[1] = molecular target: T1, Tyrosine-protein kinase JAK3 (Homo sapiens, UniProt P52333); assay: Inhibition of N-terminal GST-tagged human recombinant JAK3 (781 to 1124 residues) expressed in insect cells using 5FAM-GEEPLYWSFPAKKK-NH2 peptide as substrate incubated for 10 mins measured after 90 mins in presence of ATP by caliper mobility shift assay
T1 sequence (P52333 whole entry): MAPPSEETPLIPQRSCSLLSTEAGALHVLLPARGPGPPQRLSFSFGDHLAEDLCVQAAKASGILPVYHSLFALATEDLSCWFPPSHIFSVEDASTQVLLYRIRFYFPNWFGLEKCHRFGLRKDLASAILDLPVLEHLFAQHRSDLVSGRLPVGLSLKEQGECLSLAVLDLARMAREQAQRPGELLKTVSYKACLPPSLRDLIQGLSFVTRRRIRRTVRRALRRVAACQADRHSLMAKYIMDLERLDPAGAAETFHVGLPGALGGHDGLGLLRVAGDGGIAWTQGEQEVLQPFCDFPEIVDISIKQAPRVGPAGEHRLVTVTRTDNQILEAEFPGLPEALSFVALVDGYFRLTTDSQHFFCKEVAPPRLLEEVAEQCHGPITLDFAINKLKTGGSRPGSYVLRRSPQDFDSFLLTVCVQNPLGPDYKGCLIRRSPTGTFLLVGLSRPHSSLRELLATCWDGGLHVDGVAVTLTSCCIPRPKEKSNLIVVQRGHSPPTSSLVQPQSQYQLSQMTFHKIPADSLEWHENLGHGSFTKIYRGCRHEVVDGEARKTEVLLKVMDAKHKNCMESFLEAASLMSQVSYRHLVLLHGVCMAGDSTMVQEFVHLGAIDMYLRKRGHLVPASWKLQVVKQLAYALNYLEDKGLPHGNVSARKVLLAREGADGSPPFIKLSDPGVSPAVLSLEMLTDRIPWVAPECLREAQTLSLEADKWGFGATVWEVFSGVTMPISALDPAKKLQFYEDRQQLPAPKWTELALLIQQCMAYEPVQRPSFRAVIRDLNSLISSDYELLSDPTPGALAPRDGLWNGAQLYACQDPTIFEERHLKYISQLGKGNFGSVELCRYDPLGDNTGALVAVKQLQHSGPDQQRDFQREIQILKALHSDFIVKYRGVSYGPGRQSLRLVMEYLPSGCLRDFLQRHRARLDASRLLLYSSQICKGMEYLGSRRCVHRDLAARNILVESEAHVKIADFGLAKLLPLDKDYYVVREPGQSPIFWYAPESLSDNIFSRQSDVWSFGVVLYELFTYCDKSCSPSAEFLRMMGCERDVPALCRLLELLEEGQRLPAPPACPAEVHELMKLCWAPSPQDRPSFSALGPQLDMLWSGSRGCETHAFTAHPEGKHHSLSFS

[2] = molecular target: Tyrosine-protein kinase JAK1 (Homo sapiens, UniProt P23458); assay: Inhibition of N-terminal GST-tagged human recombinant JAK1 (866 to 1154 residues) expressed in insect cells using FITC-C6-KKHTDDGYMPMSPGVA-NH peptide as substrate incubated for 10 mins measured after 90 mins in presence of ATP by caliper mobility shift assay
Sequence of Tyrosine-protein kinase JAK1 (P23458 whole entry, the tested form may be a part): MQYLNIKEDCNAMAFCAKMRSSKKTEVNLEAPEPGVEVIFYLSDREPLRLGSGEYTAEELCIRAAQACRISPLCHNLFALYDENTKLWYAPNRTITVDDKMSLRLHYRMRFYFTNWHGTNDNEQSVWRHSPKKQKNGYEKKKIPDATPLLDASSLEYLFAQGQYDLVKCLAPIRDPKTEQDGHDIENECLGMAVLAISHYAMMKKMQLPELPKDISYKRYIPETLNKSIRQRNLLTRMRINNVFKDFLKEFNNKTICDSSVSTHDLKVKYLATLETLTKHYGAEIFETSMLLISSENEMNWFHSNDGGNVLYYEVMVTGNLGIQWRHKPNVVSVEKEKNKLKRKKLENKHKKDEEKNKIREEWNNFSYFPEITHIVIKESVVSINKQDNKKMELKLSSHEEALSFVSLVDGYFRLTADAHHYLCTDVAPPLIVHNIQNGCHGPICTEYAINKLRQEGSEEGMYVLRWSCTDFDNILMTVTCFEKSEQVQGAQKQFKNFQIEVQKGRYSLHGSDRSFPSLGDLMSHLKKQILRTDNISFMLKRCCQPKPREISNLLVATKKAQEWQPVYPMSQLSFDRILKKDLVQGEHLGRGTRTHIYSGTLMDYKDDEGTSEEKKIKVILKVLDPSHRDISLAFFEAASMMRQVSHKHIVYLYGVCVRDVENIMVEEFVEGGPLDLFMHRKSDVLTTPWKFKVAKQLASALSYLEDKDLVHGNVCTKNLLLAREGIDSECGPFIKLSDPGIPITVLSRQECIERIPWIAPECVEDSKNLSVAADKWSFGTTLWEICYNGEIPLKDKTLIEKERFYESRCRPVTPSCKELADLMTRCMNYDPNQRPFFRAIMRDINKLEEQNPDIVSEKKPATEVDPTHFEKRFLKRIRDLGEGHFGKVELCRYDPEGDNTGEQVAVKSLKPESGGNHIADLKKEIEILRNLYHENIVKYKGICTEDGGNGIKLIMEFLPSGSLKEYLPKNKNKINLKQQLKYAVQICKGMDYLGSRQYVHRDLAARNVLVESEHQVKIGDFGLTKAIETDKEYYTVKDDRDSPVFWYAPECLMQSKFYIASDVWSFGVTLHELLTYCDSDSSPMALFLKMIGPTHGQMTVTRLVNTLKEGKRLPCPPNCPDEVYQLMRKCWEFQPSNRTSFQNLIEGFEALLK

| IC50 [1] [µM] | IC50 [2] [µM] | SMILES |
| --- | --- | --- |
| > 30 | < 0.003 | CC[C@H](C(=O)Nc1cccc2c(-c3nc(Nc4cccc(S(C)(=O)=O)c4F)ncc3C)c[nH]c12)N1CCN(C)CC1 [US10961228, Example 14] |
| > 30 | < 0.003 | COC[C@H](C(=O)Nc1cccc2c(-c3nc(Nc4cccc(S(C)(=O)=O)c4F)ncc3C)c[nH]c12)N1CCN(C)CC1 [US10961228, Example 16] |

Second part, the compound before the results:

| SMILES | IC50 [1] [µM] | IC50 [2] [µM] |
| --- | --- | --- |
| Cc1cnc(Nc2cccc(S(C)(=O)=O)c2F)nc1-c1c[nH]c2c(NC(=O)[C@@H](C)N3CCN(C)CC3)cccc12 [US10961228, Example 2] | > 30 |  |
| COC[C@H](C(=O)Nc1cccc2c(-c3nc(Nc4cccc(S(C)(=O)=O)c4F)ncc3F)c[nH]c12)N1CCN(C)CC1 [US10961228, Example 35] | > 30 | < 0.003 |
| CC[C@H](C(=O)Nc1cccc2c(-c3nc(Nc4cccc(S(C)(=O)=O)c4F)ncc3F)c[nH]c12)N1CCN(C)CC1 [US10961228, Example 38] | > 30 |  |
